Test results as given in PMC4243815, “A non-pediocin low molecular weight antimicrobial peptide produced by Pediococcus pentosaceus strain IE-3 shows increased activity under reducing environment” (BMC Microbiology, 2014).
≈ marks a conversion by molar mass, not a printed value. Ends that are not written are not given here. Peptide text beside a SMILES is read from it.

Key:
amylase = assay: Effect of amylase treatment on antimicrobial activity
trypsin = assay: Effect of proteolytic enzymes on antimicrobial activity; settings: 200 μg peptide; trypsin 10 μg/ml; 100 mM Tris HCl pH 8.0 with 10 mM CaCl2; 30°C, 6 h; read-out antimicrobial assay
Protocol: The sensitivity of the bacteriocin towards different pH, temperatures and proteases was evaluated using purified bacteriocin. The purified peptide was incubated between pH values 2.0-10.0 and temperatures including 80, 100°C for 30 min and 120°C for 15 min. Antimicrobial peptide (200 μg) was incubated with various proteolytic enzymes such as trypsin (10 μg/ml, Sigma, USA), chymotrypsin (5 μg/ml, Sigma, USA) and proteinase K (5 units, Sigma, USA) in 100 mM Tris HCl buffer pH 8.0 (with 10 mM CaCl2) at 30°C for 6 h to determine their effect. The enzyme activity was terminated by heating the reaction mix at 80°C and subsequently used for antimicrobial activity assay. To test the effect of denaturant like DTT (BioRad, USA) on antimicrobial activity of the peptide, it was incubated with 50 to 150 mM DTT at room temperature for 1 h and used for growth inhibition assay. Hydrogen peroxide induced oxidation was tested by incubating the purified peptide with 100 mM concentration of hydrogen peroxide (Merck, India) for 1 h at room temperature and activity was tested by well diffusion assay.

[1] = Hydrogen peroxide induced oxidation, activity by well diffusion assay; assay type: physicochemical; settings: 100 mM hydrogen peroxide, 1 h, room temperature
Protocol: (§1) The sensitivity of the bacteriocin towards different pH, temperatures and proteases was evaluated using purified bacteriocin. The purified peptide was incubated between pH values 2.0-10.0 and temperatures including 80, 100°C for 30 min and 120°C for 15 min. Antimicrobial peptide (200 μg) was incubated with various proteolytic enzymes such as trypsin (10 μg/ml, Sigma, USA), chymotrypsin (5 μg/ml, Sigma, USA) and proteinase K (5 units, Sigma, USA) in 100 mM Tris HCl buffer pH 8.0 (with 10 mM CaCl2) at 30°C for 6 h to determine their effect. The enzyme activity was terminated by heating the reaction mix at 80°C and subsequently used for antimicrobial activity assay. To test the effect of denaturant like DTT (BioRad, USA) on antimicrobial activity of the peptide, it was incubated with 50 to 150 mM DTT at room temperature for 1 h and used for growth inhibition assay. Hydrogen peroxide induced oxidation was tested by incubating the purified peptide with 100 mM concentration of hydrogen peroxide (Merck, India) for 1 h at room temperature [36] and activity was tested by well diffusion assay.

proteinase K = target: T1, proteinase K (Parengyodontium album, UniProt P06873); assay: Effect of proteolytic enzymes on antimicrobial activity; settings: 200 μg peptide; proteinase K 5 units; 100 mM Tris HCl pH 8.0 with 10 mM CaCl2; 30°C, 6 h; read-out antimicrobial assay
T1 construct: purchased Sigma, USA
Protocol: as §1

[2] = Effect of pH on antimicrobial activity of the purified peptide; assay type: physicochemical
Protocol: as §1

[3] = Storage stability of the purified peptide; assay type: physicochemical
M. luteus = assay type: cell-based, Micrococcus luteus; settings: 16 h
Protocol: The MIC was determined for various indicator strains using a microtiter plate dilution assay as described earlier. Cell growth was measured by observing OD at 600 nm at 16 h time interval using microtiter plate reader (Multiskan spectrum, Thermo, USA). The protein concentration was determined by BCA protein concentration estimation kit (Thermo, USA) following instructions of the manufacturer. For MIC determination of DTT treated peptide, the DTT solution was filter sterilized and final 100 mM concentration was used to treat peptide.

[4] = Effect of DTT on antimicrobial activity of the purified peptide; settings: 1 h/RT, growth inhibition assay
Protocol: as §1

[5] = test system: pepsin, trypsin, chymotrypsin, proteinase K and pronase E; settings: cited from earlier work
From the text: Bacteria produces different kinds of antimicrobial substances including ribosomally synthesized bacteriocins and non-ribosomally synthesized antibiotics or lipopeptides as a part of their defense strategies in complex environments such as fermented foods and the human gut. Members belonging to the lactic acid bacteria (LAB) family with ability to produce bacteriocins are frequently found in these environments. LAB strains are recognized as GRAS (Generally Regarded As Safe) microorganisms and have been studied in detail for biotechnological applications together with the bacteriocins prod ...

T1 sequence (P06873 106-384): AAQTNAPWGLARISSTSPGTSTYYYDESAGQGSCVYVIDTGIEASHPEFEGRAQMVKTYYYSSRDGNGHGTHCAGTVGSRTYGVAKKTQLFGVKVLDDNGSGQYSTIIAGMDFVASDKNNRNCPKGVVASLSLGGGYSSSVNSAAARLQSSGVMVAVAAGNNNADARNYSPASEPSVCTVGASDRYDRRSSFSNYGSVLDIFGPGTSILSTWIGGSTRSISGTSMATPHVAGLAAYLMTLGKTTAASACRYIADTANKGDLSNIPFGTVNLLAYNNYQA

In the case of `CC(C)C[C@H](NC(=O)[C@H](Cc1c[nH]cn1)NC(=O)[C@@H](NC(=O)[C@H](CC(C)C)NC(=O)[C@H](CS)NC(=O)CNC(=O)[C@H](CCCNC(=N)N)NC(=O)[C@@H](NC(=O)[C@H](CS)NC(=O)[C@H](CO)NC(=O)[C@H](Cc1ccccc1)NC(=O)[C@@H]1CCCN1C(=O)[C@@H](NC(=O)[C@@H]1CCCN1C(=O)[C@H](C)N)C(C)C)[C@@H](C)O)[C@@H](C)O)C(=O)N[C@H](C(=O)O)C(C)C` [LMW peptide] (H-APVPFSCTRGCLTHLV-OH; N-terminus and C-terminus assumed), the “Antimicrobial activity upon treatment with amylase” value (amylase) is reported as “Stable activity”, the “Antimicrobial activity after incubation with proteolytic enzyme” value (trypsin) is reported as “no reduction in activity” and the “Antimicrobial activity after incubation with H2O2” value [1] is reported as “did not show any antimicrobial activity”. For the same compound, the “Antimicrobial activity after incubation with proteolytic enzyme” value (proteinase K) was “no reduction in activity”, the “Residual activity (%)” value ([2]; pH 2, Overnight/ RT) was 100.0% and the “Residual activity (%)” value ([2]; pH 3, Overnight/ RT) was 100.0%. The “Residual activity (%)” value ([2]; pH 4, Overnight/ RT) was 100.0%, the “Residual activity (%)” value ([2]; pH 5, Overnight/ RT) was 100.0% and the “Residual activity (%)” value ([2]; pH 6, Overnight/ RT) was 87.5%. For the same compound, the “Residual activity (%)” value ([2]; pH 7, Overnight/ RT) was 75.0%, the “Residual activity (%)” value ([2]; pH 8, Overnight/ RT) was 37.5% and the “Residual activity (%)” value ([2]; pH 9, Overnight/ RT) was 25.0%. For the same compound, the “Residual activity (%)” value ([2]; pH 10, Overnight/ RT) was 12.5%, the “Antimicrobial activity during storage” value ([3]; purified peptide stored at room temperature, within 24 h) was “significant reduction in antimicrobial activity” and the “Antimicrobial activity during storage” value ([3]; purified peptide stored at −20°C) was “stable”. The MIC (M. luteus) was 6.3 µM (≈ 10.7 µg/mL), the “Residual activity (%)” value ([4]; DTT 0 mM) was 100.0% and the “Residual activity (%)” value ([4]; DTT 50 mM) was 125.0%. For the same compound, the “Residual activity (%)” value ([4]; DTT 100 mM) was 143.7% and the “Residual activity (%)” value ([4]; DTT 150 mM) was 143.7%.

In the case of “pediocin PA-1: well-studied 4.6 kDa class IIa antimicrobial peptide (bacteriocin) from Pediococcus sp. (KYYGNGVTCGKHSCSVDWGKATTCIINNGAMAWATGGHQGNHKC; ends and bridges not checked; cysteine pairing not given here; UniProt P29430 19-62, looked up)”, the “Effect of proteases on activity” value [5] is given as “inactivated”.
